These results are taken from patent US20240376097A1, “BCL-2 Inhibitor” (BeiGene Ltd., priority 2020, published 2024).

Structures are written as SMILES. Like-named read-outs stand apart in the source and are kept apart here.

For experiment [1], the target named is recombinant human Bcl-2 D103Y protein (Homo sapiens (Human), UniProt P10415, D103Y). As to the kind of experiment: Bcl-2-D103Y Biochemical Assay (TR-FRET). It counts as binding. The conditions noted are these: for IC50: TR-FRET, FITC labeled Bak peptide; for Ratio of Bcl-2 D103Y/Bcl-2 WT: ratio of IC50. Summed up: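 Recombinant human Bcl-2 D103Y binding to its ligand measured by TR-FRET (ex 337 nm, em 490/520 nm) with increasing compound concentrations. Percent inhibition from the 490/520 nm ratio; IC50 from four-parameter logistic fit.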
(In general: TR-FRET usually uses a lanthanide donor and a delayed reading to cut background.)

For experiment [2], the system named is RS4;11 (BCL-2 dependent acute lymphoblastic leukemia cell line). Kind of experiment: RS4;11 Cell Proliferation Assay. The conditions noted are these: Homo sapiens, RS4-11, RS4;11 cells, read-out: Cellular proliferation assay (IC50, nM) RS4. It counts as cell-based. Summed up:
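RS4;11 cells, 50,000 per well in RPMI-1640 with 10% FBS, treated 48 h at 37 °C with a 10-point dilution series topping at 1 μM. Viability read by CellTiter-Glo ATP luminescence; mean IC50 reported.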

The subject of experiment [3] is BCL-2 G101V knock-in cell line H96 (derive from RS4;11). As to the kind of experiment: Bcl 2-G101V Knock-In RS4;11 Cell Proliferation Assay. The conditions noted are these: Homo sapiens, RS4;11 Bcl-2 G101V knock-in clone H96, 48 hrs, CellTiter-GLO, read-out: Cellular proliferation assay (IC50, nM) RS4. The experiment is classed as cell-based. Summed up: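 H96, a CRISPR-generated RS4;11 clone carrying BCL2-G101V knock-in (WES/RNA-seq validated), seeded 50,000 per well and exposed 48 h at 37 °C to 10-point dilutions topping at 1 or 10 μM. Viability by CellTiter-Glo luminescence; mean IC50.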
For orientation: In ATP-based viability assays light output follows the ATP content of the culture.

Experiment [4] concerns the target recombinant human Bcl-2-G101V protein (Homo sapiens (Human), UniProt P10415, G101V). Kind of experiment: Bcl-2-G101V TR-FRET Assay. It counts as binding. The conditions noted are these: Bcl-2 G101V mutant, TR-FRET; read-out: Biochemical assay (IC50, nM) Bcl-2 G101V. Summed up:
(§1)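 Displacement of ligand from recombinant human Bcl-2-G101V measured by TR-FRET (ex337 nm, em490/520 nm), inhibition derived from the 490/520 ratio across compound titrations. IC50 from four-parameter logistic fit.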

For experiment [5], the system named is recombinant human Bcl-2-G101V protein. As to the kind of experiment: Bcl-2-G101V TR-FRET Assay. It counts as binding. The conditions noted are these: ratio of biochemical IC50 Bcl-2 G101V / Bcl-2 WT. Put shortly: as §1
For experiment [6], the target named is Recombinant human Bcl-2 protein (Homo sapiens (Human), UniProt P10415). Kind of experiment: Bcl-2 TR-FRET Assay. The experiment is classed as binding. Put shortly: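 Compounds were pre-incubated with 0.05 nM recombinant Bcl-2 for 0.5 h at room temperature in potassium phosphate buffer, pH 7.5. FITC-Bak peptide (0.5 nM) and Tb-cryptate antibody were then added for 1 h. Percent inhibition from TR-FRET signals gave IC50 values.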

The mark [7] stands for this setting: Bcl-2 wild type, TR-FRET, read-out: Biochemical assay (IC50, nM) Bcl-2 WT.
The mark [8] stands for this setting: wild type Bcl-2, unit inferred, read-out: Bcl-2 WT.

As for `COc1cc(CN2CCN(C3CC4(CCN(c5ccc(C(=O)NS(=O)(=O)c6ccc(NC[C@H]7CC[C@](C)(O)CC7)c([N+](=O)[O-])c6)c(Oc6cnc7[nH]ccc7c6)c5)CC4)C3)[C@H](c3ccccc3C(C)C)C2)ccc1C` [Example 260, 2-((1H-pyrrolo[2,3-b]pyridin-5-yl)oxy)-N-((4-((((1r,4r)-4-hydroxy-4-methylcyclohexyl)methyl)amino)-3-nitrophenyl)sulfonyl)-4-(2-((R)-2-(2-isopropylphenyl)-4-(3-methoxy-4-methylbenzyl)piperazin-1-yl)-7-azaspiro[3.5]nonan-7-yl)benzamide], the IC50 in experiment [1] worked out at 0.27 nM; in experiment [2], 0.13 nM; in experiment [3], 0.33 nM; in experiment [4], 0.75 nM; in experiment [6] (setting [7]), 0.34 nM; in experiment [6] (setting [8]) it was 0.24 nM. In addition, the “Ratio of Bcl-2 D103Y/Bcl-2 WT” value in experiment [1] came out at 1.1. In addition, in experiment [5], the “Ratio of Bcl-2 G101V/WT” value came out at 2.2.
Take `CCc1ccc(CN2CCN(C3CC4(C3)CN(c3ccc(C(=O)NS(=O)(=O)c5ccc(NC[C@H]6CC[C@](C)(O)CC6)c([N+](=O)[O-])c5)c(Oc5cnc6[nH]cc(F)c6c5)c3)C4)[C@H](c3ccccc3C(C)C)C2)cc1OC` [Example 268, 4-(6-((R)-4-(4-ethyl-3-methoxybenzyl)-2-(2-isopropylphenyl)piperazin-1-yl)-2-azaspiro[3.3]heptan-2-yl)-2-((3-fluoro-1H-pyrrolo[2,3-b]pyridin-5-yl)oxy)-N-((4-((((1r,4r)-4-hydroxy-4-methylcyclohexyl)methyl)amino)-3-nitrophenyl)sulfonyl) benzamide]: the IC50 stood at 0.88 nM in experiment [1]; 0.1 nM in experiment [2]; 0.25 nM in experiment [3]; 1.3 nM in experiment [4]; 0.79 nM in experiment [6] (setting [7]); 0.79 nM in experiment [6] (setting [8]). The “Ratio of Bcl-2 D103Y/Bcl-2 WT” value in experiment [1] was 1.1. For the same compound, the “Ratio of Bcl-2 G101V/WT” value in experiment [5] amounted to 1.6.
`COc1cc(CN2CCN(C3CC4(CCN(c5ccc(C(=O)NS(=O)(=O)c6ccc(NC[C@H]7CC[C@](C)(O)CC7)c([N+](=O)[O-])c6)c(Oc6cnc7[nH]cc(F)c7c6)c5)CC4)C3)[C@H](c3ccccc3C(C)C)C2)ccc1C` [Example 273, 2-((3-fluoro-1H-pyrrolo[2,3-b]pyridin-5-yl)oxy)-N-((4-((((1r,4r)-4-hydroxy-4-methylcyclohexyl)methyl)amino)-3-nitrophenyl)sulfonyl)-4-(2-((R)-2-(2-isopropylphenyl)-4-(3-methoxy-4-methylbenzyl)piperazin-1-yl)-7-azaspiro[3.5]nonan-7-yl)benzamide]: the IC50 was 0.82 nM in experiment [1]; 0.25 nM in experiment [2]; 0.46 nM in experiment [3]; 1.9 nM in experiment [4]; 0.7 nM in experiment [6] (setting [7]); 0.7 nM in experiment [6] (setting [8]). Besides, the “Ratio of Bcl-2 D103Y/Bcl-2 WT” value in experiment [1] came out at 1.2. The “Ratio of Bcl-2 G101V/WT” value in experiment [5] was 2.6.
Consider `COc1cc(CN2CCN(C3CC4(C3)CN(c3ccc(C(=O)NS(=O)(=O)c5ccc(NC[C@H]6CC[C@](C)(O)CC6)c([N+](=O)[O-])c5)c(Oc5cnc6[nH]ccc6c5)c3)C4)[C@H](c3ccccc3C(C)C)C2)ccc1C` [Example 275, 2-((1H-pyrrolo[2,3-b]pyridin-5-yl)oxy)-N-((4-((((1r,4r)-4-hydroxy-4-methylcyclohexyl)methyl)amino)-3-nitrophenyl)sulfonyl)-4-(6-((R)-2-(2-isopropylphenyl)-4-(3-methoxy-4-methylbenzyl)piperazin-1-yl)-2-azaspiro[3.3]heptan-2-yl)benzamide], for which the IC50 in experiment [1] turned out to be 0.21 nM; in experiment [2] it was 0.14 nM; in experiment [3] it was 0.38 nM; in experiment [4] it was 0.54 nM; in experiment [6] (setting [7]), 0.27 nM; in experiment [6] (setting [8]) it was 0.27 nM. Further, in experiment [1], the “Ratio of Bcl-2 D103Y/Bcl-2 WT” value is reported as 0.76. Also, the “Ratio of Bcl-2 G101V/WT” value in experiment [5] is given as 2.
As for `CC(C)c1ccccc1[C@@H]1CN(Cc2ccc3c(c2)OCCC3)CCN1C1CC2(CCN(c3ccc(C(=O)NS(=O)(=O)c4ccc(NC[C@H]5CC[C@](C)(O)CC5)c([N+](=O)[O-])c4)c(Oc4cnc5[nH]ccc5c4)c3)CC2)C1` [Example 282], the IC50 in experiment [1] came to 0.47 nM; in experiment [2], 0.36 nM; in experiment [3], 4.2 nM; in experiment [4], 0.97 nM; in experiment [6] (setting [7]), 0.25 nM; in experiment [6] (setting [8]), 0.25 nM. Moreover, the “Ratio of Bcl-2 D103Y/Bcl-2 WT” value in experiment [1] was found to be 1.9. Further, the “Ratio of Bcl-2 G101V/WT” value in experiment [5] turned out to be 3.9.
For the compound `COc1cc(CN2CCN(C3CC4(CCN(c5ccc(C(=O)NS(=O)(=O)c6ccc(NC[C@H]7CC[C@](C)(O)CC7)c([N+](=O)[O-])c6)c(Oc6cnc7[nH]ccc7c6)c5)CC4)C3)[C@H](c3ccccc3C(C)C)C2)ccc1C(F)F` [Example 288, 2-((1H-pyrrolo[2,3-b]pyridin-5-yl)oxy)-4-(2-((R)-4-(4-(difluoromethyl)-3-methoxybenzyl)-2-(2-isopropylphenyl)piperazin-1-yl)-7-azaspiro[3.5]nonan-7-yl)-N-((4-((((1r,4r)-4-hydroxy-4-methylcyclohexyl)methyl)amino)-3-nitrophenyl)sulfonyl)benzamide], the IC50 in experiment [1] stood at 0.43 nM; in experiment [2], 0.19 nM; in experiment [3], 0.87 nM; in experiment [4], 1.3 nM; in experiment [6] (setting [7]), 0.52 nM; in experiment [6] (setting [8]) it was 0.52 nM. Besides, the “Ratio of Bcl-2 D103Y/Bcl-2 WT” value in experiment [1] is listed as 0.84. In experiment [5], the “Ratio of Bcl-2 G101V/WT” value is 2.5.
As for `COc1cc(CN2CCN(C3CC4(C3)CN(c3ccc(C(=O)NS(=O)(=O)c5ccc(NC[C@H]6CC[C@](C)(O)CC6)c([N+](=O)[O-])c5)c(Oc5cnc6[nH]cc(F)c6c5)c3)C4)[C@H](c3ccccc3C(C)C)C2)cc2c1OCC2(C)C` [Example 295, 2-((3-fluoro-1H-pyrrolo[2,3-b]pyridin-5-yl)oxy)-N-((4-((((1r,4r)-4-hydroxy-4-methylcyclohexyl)methyl)amino)-3-nitrophenyl)sulfonyl)-4-(6-((R)-2-(2-isopropylphenyl)-4-((7-methoxy-3,3-dimethyl-2,3-dihydrobenzofuran-5-yl)methyl)piperazin-1-yl)-2-azaspiro[3.3]heptan-2-yl)benzamide], the IC50 turned out to be 0.25 nM in experiment [1]; 0.29 nM in experiment [2]; 0.49 nM in experiment [3]; 0.56 nM in experiment [4]; 0.19 nM in experiment [6] (setting [7]); 0.19 nM in experiment [6] (setting [8]). For the same compound, in experiment [1], the “Ratio of Bcl-2 D103Y/Bcl-2 WT” value is 1.3. Also, in experiment [5], the “Ratio of Bcl-2 G101V/WT” value is given as 3.0.
On to `COc1cc(CN2CCN(C3CC4(C3)CN(c3ccc(C(=O)NS(=O)(=O)c5ccc(NC[C@H]6CC[C@](C)(O)CC6)c([N+](=O)[O-])c5)c(Oc5cnc6[nH]ccc6c5)c3)C4)[C@H](c3ccccc3C(C)C)C2)cc2c1OCC2(C)C` [Example 296, 2-((1H-pyrrolo[2,3-b]pyridin-5-yl)oxy)-N-((4-((((1r,4r)-4-hydroxy-4-methylcyclohexyl)methyl)amino)-3-nitrophenyl)sulfonyl)-4-(6-((R)-2-(2-isopropylphenyl)-4-((7-methoxy-3,3-dimethyl-2,3-dihydrobenzofuran-5-yl)methyl)piperazin-1-yl)-2-azaspiro[3.3]heptan-2-yl)benzamide], for which the IC50 turned out to be 0.14 nM in experiment [1]; 0.24 nM in experiment [2]; 0.55 nM in experiment [3]; 0.28 nM in experiment [4]; 0.13 nM in experiment [6] (setting [7]); 0.13 nM in experiment [6] (setting [8]). Further, the “Ratio of Bcl-2 D103Y/Bcl-2 WT” value in experiment [1] came to 1.1. The “Ratio of Bcl-2 G101V/WT” value in experiment [5] was determined as 2.1.
As for `COc1cc(CN2CCN(C3CC4(CCN(c5ccc(C(=O)NS(=O)(=O)c6ccc(NC[C@H]7CC[C@](C)(O)CC7)c([N+](=O)[O-])c6)c(Oc6cnc7[nH]cc(F)c7c6)c5)CC4)C3)[C@H](c3ccccc3C(C)C)C2)cc2c1OCCC2` [Example 299, 2-((3-fluoro-1H-pyrrolo[2,3-b]pyridin-5-yl)oxy)-N-((4-((((1r,4r)-4-hydroxy-4-methylcyclohexyl)methyl)amino)-3-nitrophenyl)sulfonyl)-4-(2-((R)-2-(2-isopropylphenyl)-4-((8-methoxychroman-6-yl)methyl)piperazin-1-yl)-7-azaspiro[3.5]nonan-7-yl)benzamide], the IC50 in experiment [1] came to 0.13 nM; in experiment [2] it was 0.27 nM; in experiment [3], 0.47 nM; in experiment [4], 0.25 nM; in experiment [6] (setting [7]), 0.13 nM; in experiment [6] (setting [8]) it was 0.13 nM. In addition, the “Ratio of Bcl-2 D103Y/Bcl-2 WT” value in experiment [1] was 1.0. Further, the “Ratio of Bcl-2 G101V/WT” value in experiment [5] stood at 1.9.
